Series [1] deals with alveolar artificial tissue construct cells. In words: WST-1 cellular (mitochondrial) activity of treated construct cells. In kind it is cell-based, human. Conditions: stated in the WST-1 paragraph; 24-h treatments. How it is done:
Cellular uptake of WST-1 was used to determine the mitochondrial activity of live cells. A spectroscopic reading of the collected/metabolized tetrazolium salt was performed to compare the cellular activity of hormone or bacterial particle treated cells to the non-treated control cells after 24-h treatments.

For the next series, the system named is CYP1A1 and CYP2B1. Description: Cytochrome P450 activity of bilayer construct after induction (7-ethoxy/7-pentoxy resorufin). Type of series: cell-based, human. Conditions: 24 h exposure, then 7-ethoxy or 7-pentoxy resorufin for 30 min; FIG. 8. How it is done: The effects of polycyclic carcinogens on cytochrome P450 activity in the artificial tissue constructs was also analyzed. Cytochrome P450 proteins are involved in the metabolism of many exogenous and endogenous chemicals, including drugs, steroids, and toxins. Cytochrome P450 induction is indicative of chemical metabolism. Cellular P450 enzyme activity of CYP1A1 & CYP2B1 families was studied. The bilayer constructs were prepared from biopsy samples of three different patients.
The mucosal construct was exposed to either 3-methylcholantherine and β-nitrophenol (FIG. 8) for 24 h, followed by 7-ethoxy resorufin (5-15 μM) or 7-pentoxy resorufin (5-15 μM) addition (for 30 min) to quantify CYP 1A1 and CYP 2B1 activity, respectively. A β-glucuronidase and arylsulfatase enzyme cocktail was then added to the samples and they were incubated for 2 h at 37° C. Fluorometric absorbance was then measured. A standard curve was prepared using resorufin to quantify the P450 activity. 3-Methylcholanthere and β-nitrophenol are known environmental carcinogens found in cigarette smoke and in airborne industrial byproducts.

Series [2] concerns bilayer mucosal construct (primary human alveolar epithelial and endothelial cells). In words: Cytokine production by bilayer alveolar mucosal construct (BioPlex/Luminex 22-plex). Conditions: corticosteroid addition for 24 h vs control; FIG. 7. Type of series: cell-based. How it is done: Immunosuppressant effects on the cultured mucosal construct were tested by the addition of, for example, dexamethasone (0.5-0.1 μM) and hydrocortisone (5-10 μM) for 24 h. The effect of, for example, diesel particles (0.01-0.2 mg/mL) and urban dust (0.01-0.2 mg/mL) exposure was also studied in the alveolar tissue. NIST standards Diesel Particulate Matter (SRM 2975), and Urban Dust (SRM 1649a), containing both organic and inorganic components, were used as environmental irritants (FIG. 3). A BioPlex 22-Plex™ cytokine kit (Upstate) was used to quantify the cytokine levels in the collected media.
The cytokine profile of the bilayer construct prepared in a 0.33 cm^2 area Transwell™ cell culture device was compared with the alveolar epithelial cells cultured in T-25 flasks. Controls for each experiment with or without the various irritant treatments were also included in the experimental design.
The effects of immunosuppressant hormonal treatment (dexamethasone and hydrocortisone) and exposure to bacterial particles (E. coli and Staphylococcus aureus) on respiratory cells were examined by quantifying cytokine production by the mucosal tissue. […]
Using Luminex™ immunoassay technology, we simultaneously quantified the 22 cytokine and chemokines in the collected treatment media. […]

Molecules are shown by their SMILES.

For the compound `Cc1ccc2cc3c(ccc4ccccc43)c3c2c1CC3` [3-methylcholanthere], the “activation of alveolar artificial tissue construct cells” value in series [1] is listed as “activated”. In the series on CYP1A1 and CYP2B1, the “p450 (CYP1A1 and CYP2B1) activation of construct cells” value is given as “activated”.
Regarding `O=c1cc(-c2ccccc2)oc2ccc3ccccc3c12` [BNF, β-napthophenol], in series [1], the “activation of alveolar artificial tissue construct cells” value is recorded as “less activated”. Moreover, the “p450 (CYP1A1 and CYP2B1) activation of construct cells” value with CYP1A1 and CYP2B1 is “less activated”.
Consider `C[C@]12CCC(=O)C=C1CC[C@@H]1[C@@H]2[C@@H](O)C[C@@]2(C)[C@H]1CC[C@]2(O)C(=O)CO` [hydrocortisone], for which, in series [2], the “cytokine production by the native cells of the bilayer mucosal construct” value is given as “significant decrease”.

The values are drawn from patent US9566250B2, “Artificial tissue constructs comprising alveolar cells and methods for using the same” (SANOFI PASTEUR VAXDESIGN CORPORATION, priority 2007, dated 2017).
